According to PubChem BioAssay AID330 (DTP/NCI, 2004):
Several values for one entry are separate records, joined by “and”; a condition that tells them apart may be missing. Equal entries are not always repeated. Inconclusive results and toxic doses are left out. Rule for the calls: active = survival T/C of 150% or more; inactive = T/C below 125% in these data.

Tested on: P388 leukemia ip, CD2F1 mice, survival T/C
Experiment: NCI In Vivo Anticancer Drug Screen. Data for tumor model P388 Leukemia (intraperitoneal) in CD2F1 (CDF1) mice
Conditions: endpoint: median survival time, higher = longer survival
Procedure, shortened: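 Mice carrying the transplanted tumor received test compound or vehicle. Survival was recorded in each group, and the value is the treated-group measurement divided by that of the vehicle-treated control group.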

[1] = dose: 100.0 mg/kg/injection, schedule: Q01DX001 (ip), vehicle: saline
[2] = dose: 200.0 mg/kg/injection, schedule: Q01DX001 (ip), vehicle: saline
[3] = dose: 400.0 mg/kg/injection, schedule: Q01DX001 (ip), vehicle: saline

Measured: T/C

O=C(O)CCCc1ccc(N(CCCl)CCCl)cc1
inactive: dose: 1.0 mg/kg/injection, schedule: Q01DX005 (ip), vehicle: saline with Tween-80 106 % of control | dose: 1.0 mg/kg/injection, schedule: Q03HX024 (ip), vehicle: saline 109 % of control | dose: 1.25 mg/kg/injection, schedule: Q01DX005 (ip), vehicle: saline with Tween-80 113 % of control and 119 % of control and 121 % of control | dose: 1.3 mg/kg/injection, schedule: Q01DX009 (ip), vehicle: saline + alcohol 117 % of control | dose: 2.0 mg/kg/injection, schedule: Q01DX005 (ip), vehicle: saline with Tween-80 113 % of control | dose: 2.0 mg/kg/injection, schedule: Q03HX016 (ip), vehicle: saline 123 % of control | dose: 2.0 mg/kg/injection, schedule: Q04DX003 (ip), vehicle: Klucel (hydroxypropylcellulose) (HPC) 110 % of control | dose: 2.2 mg/kg/injection, schedule: Q01DX009 (ip), vehicle: saline + alcohol 120 % of control | dose: 2.59 mg/kg/injection, schedule: Q04DX002 (ip), vehicle: saline with Tween-80 114 % of control | dose: 3.6 mg/kg/injection, schedule: Q01DX009 (ip), vehicle: saline + alcohol 115 % of control | dose: 3.75 mg/kg/injection, schedule: Q01DX009 (ip), vehicle: Klucel (hydroxypropylcellulose) (HPC) 118 % of control | dose: 4.0 mg/kg/injection, schedule: Q01DX009 (ip), vehicle: saline 120 % of control | dose: 4.0 mg/kg/injection, schedule: Q01DX009 (sc), vehicle: saline 118 % of control | dose: 4.0 mg/kg/injection, schedule: Q04DX003 (ip), vehicle: Klucel (hydroxypropylcellulose) (HPC) 111 % of control | dose: 4.32 mg/kg/injection, schedule: Q04DX002 (ip), vehicle: saline with Tween-80 119 % of control | dose: 7.5 mg/kg/injection, schedule: Q01DX009 (ip), vehicle: Klucel (hydroxypropylcellulose) (HPC) 122 % of control | dose: 8.0 mg/kg/injection, schedule: Q01DX009 (sc), vehicle: saline 118 % of control | dose: 8.0 mg/kg/injection, schedule: Q03HX024 (ip), vehicle: saline 90 % of control | dose: 8.0 mg/kg/injection, schedule: Q04DX003 (ip), vehicle: saline 113 % of control | dose: 8.0 mg/kg/injection, schedule: Q04DX003 (ip), vehicle: water 113 % of control | dose: 15.0 mg/kg/injection, schedule: Q01DX009 (ip), vehicle: Klucel (hydroxypropylcellulose) (HPC) 115 % of control | dose: 16.0 mg/kg/injection, schedule: Q01DX001 (ip), vehicle: saline 113 % of control | dose: 16.0 mg/kg/injection, schedule: Q01DX001 (sc), vehicle: saline 104 % of control | dose: 16.0 mg/kg/injection, schedule: Q01DX009 (sc), vehicle: saline 122 % of control | dose: 16.0 mg/kg/injection, schedule: Q03HX016 (ip), vehicle: saline 95 % of control | dose: 16.7 mg/kg/injection, schedule: Q01DX009 (ip), vehicle: saline + alcohol 120 % of control | dose: 27.8 mg/kg/injection, schedule: Q01DX009 (ip), vehicle: saline + alcohol 59 % of control | dose: 32.0 mg/kg/injection, schedule: Q01DX001 (sc), vehicle: saline 109 % of control | dose: 32.0 mg/kg/injection, schedule: Q04DX003 (ip), vehicle: Klucel (hydroxypropylcellulose) (HPC) 100 % of control | dose: 64.0 mg/kg/injection, schedule: Q01DX001 (sc), vehicle: saline 113 % of control
active: dose: 2.0 mg/kg/injection, schedule: Q03HX024 (ip), vehicle: saline 163 % of control | dose: 3.24 mg/kg/injection, schedule: Q01DX009 (ip), vehicle: Klucel (hydroxypropylcellulose) (HPC) 160 % of control | dose: 4.0 mg/kg/injection, schedule: Q03HX008 (ip), vehicle: saline 150 % of control | dose: 4.0 mg/kg/injection, schedule: Q03HX016 (ip), vehicle: saline 204 % of control | dose: 4.5 mg/kg/injection, schedule: Q01DX009 (ip), vehicle: saline + alcohol 153 % of control | dose: 5.0 mg/kg/injection, schedule: Q01DX009 (ip), vehicle: saline + alcohol 154 % of control | dose: 5.4 mg/kg/injection, schedule: Q01DX009 (ip), vehicle: Klucel (hydroxypropylcellulose) (HPC) 180 % of control | dose: 6.7 mg/kg/injection, schedule: Q01DX009 (ip), vehicle: saline + alcohol 180 % of control | dose: 8.0 mg/kg/injection, schedule: Q01DX005 (ip), vehicle: saline with Tween-80 186 % of control | dose: 8.0 mg/kg/injection, schedule: Q01DX009 (ip), vehicle: saline 170 % of control | dose: 8.0 mg/kg/injection, schedule: Q03HX016 (ip), vehicle: saline 200 % of control | dose: 9.0 mg/kg/injection, schedule: Q01DX009 (ip), vehicle: Klucel (hydroxypropylcellulose) (HPC) 152 % of control | dose: 10.0 mg/kg/injection, schedule: Q01DX009 (ip), vehicle: saline + alcohol 166 % of control and 172 % of control and 183 % of control | dose: 10.0 mg/kg/injection, schedule: Q01DX009 (ip), vehicle: saline with Tween-80 160 % of control | dose: 15.0 mg/kg/injection, schedule: Q01DX009 (ip), vehicle: saline with Tween-80 173 % of control | dose: 16.0 mg/kg/injection, schedule: Q01DX005 (ip), vehicle: saline with Tween-80 176 % of control | dose: 16.0 mg/kg/injection, schedule: Q03HX008 (ip), vehicle: saline 186 % of control | dose: 16.0 mg/kg/injection, schedule: Q04DX003 (ip), vehicle: Klucel (hydroxypropylcellulose) (HPC) 169 % of control | dose: 16.0 mg/kg/injection, schedule: Q08DX002 (ip), vehicle: saline 154 % of control | dose: 20.0 mg/kg/injection, schedule: Q01DX009 (ip), vehicle: saline with Tween-80 187 % of control | dose: 20.0 mg/kg/injection, schedule: Q04DX002 (ip), vehicle: saline with Tween-80 163 % of control | dose: 32.0 mg/kg/injection, schedule: Q04DX003 (ip), vehicle: saline 190 % of control | dose: 32.0 mg/kg/injection, schedule: Q04DX003 (ip), vehicle: water 154 % of control and 212 % of control | dose: 32.0 mg/kg/injection, schedule: Q08DX002 (ip), vehicle: saline 190 % of control

CONC(=O)N/N=C/c1c(CO)cnc(C)c1O
inactive: dose: 12.5 mg/kg/injection, schedule: Q01DX005 (ip), vehicle: Klucel (hydroxypropylcellulose) (HPC) 104 % of control | dose: 25.0 mg/kg/injection, schedule: Q01DX005 (ip), vehicle: Klucel (hydroxypropylcellulose) (HPC) 100 % of control | dose: 50.0 mg/kg/injection, schedule: Q01DX005 (ip), vehicle: Klucel (hydroxypropylcellulose) (HPC) 94 % of control

CC(C)(N)C(=O)O
inactive: dose: 12.5 mg/kg/injection, schedule: Q01DX009 (ip), vehicle: saline with Tween-80 101 % of control | dose: 25.0 mg/kg/injection, schedule: Q01DX009 (ip), vehicle: saline with Tween-80 94 % of control | dose: 50.0 mg/kg/injection, schedule: Q01DX009 (ip), vehicle: saline with Tween-80 100 % of control | dose: 100.0 mg/kg/injection, schedule: Q01DX009 (ip), vehicle: saline with Tween-80 94 % of control | dose: 200.0 mg/kg/injection, schedule: Q01DX009 (ip), vehicle: saline with Tween-80 100 % of control | dose: 400.0 mg/kg/injection, schedule: Q01DX009 (ip), vehicle: saline with Tween-80 94 % of control | dose: 800.0 mg/kg/injection, schedule: Q01DX009 (ip), vehicle: saline with Tween-80 94 % of control | dose: 1600.0 mg/kg/injection, schedule: Q01DX009 (ip), vehicle: saline with Tween-80 94 % of control

COCC1(C)CCCC2(C)C3=CC(O)CCC3CCC12 (stereo not given)
inactive: [1] 98 % of control | [2] 97 % of control | [3] 98 % of control

O=C(CCCl)Nc1cc2ccccc2oc1=O
inactive: dose: 60.0 mg/kg/injection, schedule: Q01DX005 (ip), vehicle: saline with Tween-80 91 % of control | dose: 120.0 mg/kg/injection, schedule: Q01DX005 (ip), vehicle: saline with Tween-80 92 % of control | dose: 240.0 mg/kg/injection, schedule: Q01DX005 (ip), vehicle: saline with Tween-80 89 % of control

CC(=O)Oc1ccc(CO)cc1OC(C)=O
inactive: dose: 50.0 mg/kg/injection, schedule: Q01DX005 (ip), vehicle: saline 101 % of control and 102 % of control | dose: 100.0 mg/kg/injection, schedule: Q01DX005 (ip), vehicle: saline 106 % of control and 108 % of control

N=C1SC23CCCN2C(=O)C2(CCCN2C3=O)S1
inactive: [1] 96 % of control | [2] 92 % of control | [3] 92 % of control

COc1cc2ccc(CCNCc3ccccc3)cc2cc1OC
inactive: dose: 12.5 mg/kg/injection, schedule: Q01DX009 (ip), vehicle: Klucel (hydroxypropylcellulose) (HPC) 95 % of control | dose: 25.0 mg/kg/injection, schedule: Q01DX009 (ip), vehicle: Klucel (hydroxypropylcellulose) (HPC) 94 % of control | dose: 50.0 mg/kg/injection, schedule: Q01DX009 (ip), vehicle: Klucel (hydroxypropylcellulose) (HPC) 95 % of control | dose: 100.0 mg/kg/injection, schedule: Q01DX009 (ip), vehicle: Klucel (hydroxypropylcellulose) (HPC) 90 % of control
